Each block holds one compound with its values, some of them ahead of it.
Experiments:
[1] = test system: tumor cell line shown in Table 38; assay: Example 9: combined use with BCL-2 inhibitor, cell growth inhibition test (IC50 ratio, CI); assay type: cell-based; conditions: MOLT-4; for CI: at ED50
[2] = test system: Human multiple myeloma (MM) KMS-26 cell lines; assay: Example 16: tumor growth inhibition in mice, combinational treatment with bortezomib; assay type: in vivo; conditions: KMS-26 in mice; 1 mg/kg/day, days 1, 4, 8, 11; day 15
Text: (§1) The test ended on day 15.
A necessary amount of the test compound was weighed to prepare a solution to administer to the mice.
(§2) RTVn=TVn/TV1 (equation D)
(§3) BWCn (%)=(BWn−BW1)/BW1×100 (equation F)

U266B1 = assay: Example 1: combined use with proteasome inhibitor, cell growth inhibition test (IC50 ratio, CI), U266B1; assay type: cell-based, human; conditions: for CI: at ED50
[3] = test system: tumor cell lines shown in Table 58; assay: Example 22: combined use with IAP antagonist, cell growth inhibition test (IC50 ratio, CI); assay type: cell-based; conditions: HL-60; for CI: at ED50
[4] = test system: tumor cell line shown in Table 36; assay: Example 8: combined use with BTK inhibitor, cell growth inhibition test (IC50 ratio, CI); assay type: cell-based; conditions: MV-4-11; for CI: at ED50
[5] = background art, Non-patent Literature 7; decrease in plasma concentration; cited from earlier work
carbonic anhydrase II = carbonic anhydrase II (Homo sapiens, UniProt P00918); conditions: background art, Non-patent Literature 8; cited from earlier work
[6] = test system: human acute myelogenous leukemia (AML) THP-1 cell lines; assay: Example 21: tumor growth inhibition in mice, combinational treatment with azacytidine; assay type: in vivo; conditions: THP-1 in mice; intraperitoneally 20 mg/kg/day, days 1, 4, 8, 11, 15, 18; day 22
Text: as §2, §3
The test ended on day 22.

[7] = test system: tumor cell lines shown in Table 24; assay: Example 2: combined use with tyrosine kinase inhibitor, cell growth inhibition test (IC50 ratio, CI); assay type: cell-based; conditions: MOLT-4; for CI: at ED50
[8] = test system: human acute myelogenous leukemia (AML) MV-4-11 cell lines; assay: Example 17: tumor growth inhibition in mice, combinational treatment with gilteritinib; assay type: in vivo; conditions: MV-4-11 in mice; orally 3 mg/kg/day, days 1-14; day 15
Text: as §2, §3, §1

[9] = IC50 of Reference Example Compound 55 : IC50 of other compound = 1:value
[10] = Reference Example Compound 55:other compound 1:60
[11] = combined use with Reference Example Compound 55

IC50 Ratio [1, 9]: 119
SMILES: CC1(C)CCC(CN2CCN(c3ccc(C(=O)NS(=O)(=O)c4ccc(NCC5CCOCC5)c([N+](=O)[O-])c4)c(Oc4cnc5[nH]ccc5c4)c3)CC2)=C(c2ccc(Cl)cc2)C1 [ABT-199]
CI [1, 10]: 0.37 | CI ([1]; Reference Example Compound 55:other compound 1:180): 0.40 | Comprehensive Evaluation [1, 11]: Synergism (0.3-0.7)

IC50 Ratio (U266B1; [9]): 0.05
SMILES: CC(C)C[C@H](NC(=O)[C@H](Cc1ccccc1)NC(=O)c1cnccn1)B(O)O [Bortezomib, bortezomib]
BWC15 (%) Mean ± SD [2]: 1.3 ± 3.2% | RTV15 Mean ± SD [2]: 6.9 ± 3.2 | T/C15 (%) [2]: 66% | CI (U266B1; Reference Example Compound 55:other compound 1:0.02): 0.56 | CI (U266B1; Reference Example Compound 55:other compound 1:0.07): 0.51 | Comprehensive Evaluation (U266B1; [11]): Synergism (0.3-0.7)

IC50 Ratio [3, 9]: 2122
SMILES: CN[C@@H](C)C(=O)N[C@H](C(=O)N1CCC[C@H]1C(=O)Nc1snnc1-c1ccccc1)C1CCCCC1 [GDC-0152]
CI ([3]; Reference Example Compound 55:other compound 1:90): 0.45 | CI ([3]; Reference Example Compound 55:other compound 1:270): 0.62 | Comprehensive Evaluation [3, 11]: Synergism (0.3-0.7)

SMILES: C=CC(=O)N1CCC[C@@H](n2nc(-c3ccc(Oc4ccccc4)cc3)c3c(N)ncnc32)C1 [Ibrutinib, ibrutinib]
IC50 Ratio [4, 9]: 140 | CI ([4]; Reference Example Compound 55:other compound 1:111): 0.70 | CI ([4]; Reference Example Compound 55:other compound 1:333): 0.72

SMILES: NS(=O)(=O)OC[C@@H]1C[C@@H](n2ccc3c(N[C@H]4CCc5ccccc54)ncnc32)C[C@@H]1O [MLN4924, N-[(1S)-1-indanyl]-7-[(1R)-3α-hydroxy-4α-(sulfamoyloxymethyl)cyclopentyl]-7H-pyrrolo[2,3-d]pyrimidin-4-amine]
transfer of administered drug to red blood cells in the blood [5]: transferred to red blood cells | inhibition of carbonic anhydrase II activity (carbonic anhydrase II): inhibits the activity

SMILES: Nc1ncn([C@@H]2O[C@H](CO)[C@@H](O)[C@H]2O)c(=O)n1 [azacytidine]
BWC22 (%) Mean ± SD [6]: 3.6 ± 4.5% | RTV22 Mean ± SD [6]: 8.8 ± 2.0 | T/C22 (%) [6]: 45%

SMILES: CCc1nc(C(N)=O)c(Nc2ccc(N3CCC(N4CCN(C)CC4)CC3)c(OC)c2)nc1NC1CCOCC1 [gilteritinib]
CI ([7]; Reference Example Compound 55:other compound 1:20): 0.96 | CI [7, 10]: 0.88 | Comprehensive Evaluation [7, 11]: Additive (0.9-1.10) | BWC15 (%) Mean ± SD [8]: 5.8 ± 3.0% | RTV15 Mean ± SD [8]: 1.9 ± 0.5 | T/C15 (%) [8]: 41%
